Entries after “also recorded” stand apart in the source; their conditions may differ.
Assays:
[1] = cited from earlier work
[2] = test system: GBM xenografts derived from T4121 GSCs; assay: MK-8931 combined with low dose irradiation in T4121 GBM xenografts
Description: Glioma stem cells (T4121 GSCs) expressing luciferase were transplanted into mouse brains through intracranial injection to establish orthotopic GBM xenografts. Irradiation (2 Gy) was performed on Day 8 and Day 16. […] Representative bioluminescent images (B) at day 7 (before treatment) and day 15 (treatment for one week) are shown. […] Data are shown as mean±SEM. * p<0.05, ** p<0.01, * ** p<0.001, and NS (not significant)≥0.05 as indicated; Student's t-test. Ctl: Control; IR: Irradiation. […] Data are shown as mean±SEM. Log-rank analysis was used to assess the significance. Significances were shown as indicated. Ctl: Control; IR: irradiation.
Frozen xenograft sections were co-immunostained with specific antibodies against IBA1 (in green) and CD163 (in red) or HLA-DR (in red) and counterstained with DAPI (in blue). Representative immunofluorescent images showing the staining of IBA1 and the M2 TAM marker CD163 (A) or IBA1 and the M1 TAM marker HLA-DR (B) in the GBM xenografts. […] (D and E). […] Frozen xenografts sections were immunostained with a specific antibody against cleaved caspase-3 (in green) and counterstained with DAPI (in blue). […] Data are shown as mean±SEM from at least 5 images of 3-5 mice. * p<0.05 and ** p<0.01; Student's t-test. Scale bar represents 3 μM. Ctl: Control; IR: Irradiation; CC-3: Cleaved caspase-3.
Seven days after the implantation, IVIS was performed twice per week to monitor the tumor growth under the Spectrum CT Imaging System (PerkinElmer) before and after treatment. […] Mouse brains bearing the tumors were collected for immunofluorescent, histochemical and histological analyses.
Irradiation (IR) was performed with the Pantek X-ray irradiator (once per week) at low dose (2 Gy). To protect the mice and limit the side effect of irradiation, anesthetized mice were covered by a lead plate and only the tumor implantation sites were exposed to the fractioned radiation. Mice were sacrificed at the indicated time points or upon the appearance of the neurological signs. […] Only animals with accidental death (for example, due to infection or intracranial injection) were excluded from the data analysis.
Primary antibodies were added to the sections or cells and incubated overnight at 4° C. […] After the incubation of the primary antibodies, the sections or cells were washed three times with cold PBS for five minutes each and then incubated with the secondary antibodies for one hour at room temperature. […] Finally, images were captured by a fluorescence microscopy (Leica DM4000) and further analyzed with ImageJ software.

T4121 GSCs = assay: Tumorsphere formation assay; format: cell-based, human; settings: MK-8931 50 μg/mL
Description: (§1) FIG. 16, panels A-E. MK-8931 Treatment Had Little Effect on Glioma Stem Cells. (A and B) Tumorsphere formation assay to examine the effect of MK-8931 treatment on glioma stem cells (GSCs). Representative images (A) of tumorsphere derived from T4121 GSCs treated with MK-8931 (50 μg/mL) or the vehicle control. Quantifications (B) show the number and size of tumorsphere derived from T4121 GSCs treated with MK-8931 (50 μg/mL) or the control. Data are shown as mean±SEM. NS (not significant)≥0.05, Student's t-test. […] GAPDH was blotted as loading control. (D) Immunoblot analysis of the apoptotic markers cleaved-PARP and cleaved caspase-3 in GSCs (T387 and T4121) treated with MK-8931 (50 μg/mL), etoposide (Etop, 1 μM), or the vehicle control for different time as indicated. GAPDH was blotted as loading control. […] Ctl: Control; Etop: Etoposide. (E) Cell viability assay to examine the effect of MK-8931 treatment on proliferation of glioma stem cells. […] Data are shown as mean±SEM. NS (not significant)≥0.05, Student's t-test.
Tumorsphere formation assay was performed as described in our previous study (Shi et al., 2018). Glioma cells (1000 cells) were plated on the one well of a 96-well plate and maintained in the stem cell medium. […] The sizes and numbers of the tumor-sphere in the control and MK-8931 groups were furthered analyzed with ImageJ.

GSCs (T387 and T4121) = assay: Immunoblot of apoptotic markers in glioma stem cells; format: cell-based, human; settings: MK-8931 50 μg/mL, different times
Description: as §1

GBM xenografts (T387) = assay: Intracranial GBM xenografts from T387 glioma stem cells; format: in vivo, mouse
Source text: FIG. 13, panels A-C. BACE1 Inhibition by MK-8931 Converts M2 TAMs into M1 Macrophages in GBM Xenografts. (A and B) Density analysis of M2 TAMs by immunofluorescent staining of the M2 TAM marker (CD163 or FIZZ1) and the total TAM marker IBA1 and in GBM xenografts (T387) treated with MK-8931 or vehicle control. GBM xenografts were established by implantation of glioma stem cells (T387) through intracranial injection. […] Representative immunofluorescent images (A) showing M2 TAMs (CD163′ or FIZZ1^+, in red) and total TAMs (IBA1^+, in green) in the MK-8931-treated or control GBM xenografts. […] (C and D) Density analysis of M1 TAMs by immunofluorescent staining of the M TAM marker (HLA-DR or CD11c) and the total TAM marker IBA1 and in GBM xenografts (T387) treated with MK-8931 or vehicle control. […] Representative immunofluorescent images (C) showing M1 TAMs (HLA-DR^+ or CD11c^+, in red) and total TAMs (IBA1^+, in green) in the MK-8931-treated or control GBM xenografts. […] Scale bars represent 3 μM. Ctl: Control; MK: MK-8931.
(A-C) A preclinical trial of MK-8931 for GBM treatment in GSC-derived xenograft models. […] When humane endpoints occur, mouse was anesthetized and brain bearing tumor was harvested. Representative bioluminescent images (A) of intracranial GBM xenografts treated with MK-8931 or the vehicle control on day 7 (before treatment), day 17 and day 27 (treatment for 10 and 20 days) are shown. […] (D and E) In vivo phagocytosis of TAMs against human glioma cells in GBM xenografts treated with MK-8931 or the vehicle control. […] Representative images (D) showing in vivo TAM phagocytosis as the inclusion body of a glioma cell (TRA-1-85+, in red) within a TAM (IBA1^+, in green) in the MK-8931 treated GBM xenografts but not in the control tumors. […] (F and G) Detection of apoptosis by immunofluorescent staining of cleaved caspase-3 the GSC-derived xenografts treated with MK-8931 or the vehicle control. […] (H and I) Vessel density analysis by immunofluorescent staining of CD31 in the GSC-derived xenografts treated with MK-8931 or the vehicle control.

[3] = test system: bone marrow-derived macrophages (BMDMs); assay: Phagocytosis assay, bone marrow-derived macrophages against glioma cells; format: cell-based, mouse; settings: MK-8931 50 μg/mL two days; T4121; p<0.001
[4] = IR 2 Gy on Day 8 and Day 16 plus MK-8931 30 mg/kg once daily oral from Day 9, 30 mg/kg
[5] = 30 mg/kg once daily oral gavage two weeks, p<0.001
[6] = 30 mg/kg once daily oral, p<0.01
[7] = 30 mg/kg once daily oral, p<0.05

In the case of `CN1C(N)=N[C@](C)(c2cc(NC(=O)c3ccc(F)cn3)ccc2F)CS1(=O)=O` [MK-8931], the “efficacy in phase 3 AD clinical trials” value ([1]; AD patients) is listed as “ineffectiveness in controlling AD progression or improving life quality of AD patients”, the “tolerability / safety in AD clinical trials” value ([1]; patients, Phase I to Phase III) is listed as “well-tolerated for patients; also recorded: very safe in the clinical trials for AD treatment; also recorded: well-tolerated in human and showed little toxic effect; also recorded: very safe for patients” and the “survival (Kaplan-Meier), IR plus MK-8931” value [2, 4] is listed as “synergized with MK-8931 treatment to extend survival of the tumor-bearing animals; also recorded: longest survival extension among four experimental groups”. For the same compound, the “tumor growth (mean bioluminescence), IR plus MK-8931” value [2, 4] was “significantly synergized with MK-8931 treatment to inhibit GBM tumor growth; also recorded: strongest inhibition on GBM growth”, the “TAM subtype (CD163+ M2 vs HLA-DR+ M1), IR plus MK-8931” value ([2]; IR (2×2 Gy) plus MK-8931) was “effectively converted M2 TAMs (CD163+) into M1 macrophages (HLA-DR^+)” and the “apoptosis (fraction of cleaved caspase-3+ cells), IR plus MK-8931” value ([2]; IR (2×2 Gy) plus MK-8931 30 mg/kg, mean±SEM) was 25.9±3.1%. The “apoptosis (fraction of cleaved caspase-3+ cells), MK-8931 treatment alone” value ([2]; MK-8931 30 mg/kg alone, mean±SEM) was 10.4±0.9%, the “number and size of tumorspheres” value (T4121 GSCs) was “did not affect GSC sphere formation” and the “apoptotic markers cleaved-PARP and cleaved caspase-3” value (GSCs (T387 and T4121)) was “did not induce apoptosis in GSCs in vitro”. The “density of M1 TAMs (HLA-DR+/IBA1+ or CD11c+/IBA1+)” value (GBM xenografts (T387); [5]) was “significantly increased density of M1 TAMs”, the “density of M2 TAMs (CD163+/IBA1+ or FIZZ1+/IBA1+)” value (GBM xenografts (T387); [5]) was “significantly reduced density of M2 TAMs” and the “tumor growth (mean bioluminescence)” value (GBM xenografts (T387); 30 mg/kg once daily oral, day 7, 17 and 27) was “Suppressed GBM Tumor Growth”. For the same compound, the “survival (Kaplan-Meier)” value (GBM xenografts (T387); 30 mg/kg once daily oral, log-rank p<0.05) was “significantly extended the survival of animals bearing the GBM xenografts”, the “apoptosis (cleaved caspase-3+ cells)” value (GBM xenografts (T387); [6]) was “significantly increased apoptosis” and the “in vivo TAM phagocytosis (inclusion bodies)” value (GBM xenografts (T387); [6]) was “promoted TAM phagocytosis”. For the same compound, the “proliferative cells (Ki-67+)” value (GBM xenografts (T387); [6]) was “significantly reduced proliferative cells”, the “GSC population (SOX2+ cells)” value (GBM xenografts (T387); [7]) was “significant reduced GSCs” and the “vessel density (CD31)” value (GBM xenografts (T387); [7]) was “significantly reduced vessel density”. The “phagocytosis of BMDMs against human glioma cells” value [3] was “significantly promoted phagocytosis of BMDMs”.

From US11559528B2, “BACE1 inhibition for the treatment of cancer” (The Cleveland Clinic Foundation, priority 2019, dated 2023)
